The values below are quoted from earlier work in patent publication US20110015587A1, “Irrigation Device and Method Using Same” (priority 2009, published 2011).

Data set [1] relates to bacteria. The following applies: 2.6 ppm, 5 minutes.
Data set [2] deals with Escherichia coli. The following applies: Escherichia coli exposed to hypochlorous acid.
Data set [3] concerns bacteria. The following applies: very low concentrations.
In data set [4] the test system is human cells.
The subject of data set [5] is gram-negative and gram-positive bacteria, fungi and yeast including MRSA, Pseudomanas aeruginosa, VRE.
The test system of data set [6] is cellular components of wound healing.

Turning to `OCl` [Hypochlorous acid], the growth inhibition in data set [1] was 100%. Moreover, the “time to loss of viability” value in data set [2] is given as “less than 100 ms”.

Turning to Polyaminopropyl biguanide [PAPB], the bactericidal concentration in data set [3] is 10 mg/L. Moreover, in data set [4], the “toxicity to higher organisms such as human cells” value is “very low toxicity”. Besides, in data set [5], the “activity against gram-negative and gram-positive bacteria, fungi and yeast” value is on record as “active”.

As to povidone-iodine, the “cytotoxicity to the cellular components of wound healing” value in data set [6] is recorded as “cytotoxic”.
